# Measurements from US10647725B2, “Anti-infective 2-aminothiophenes” (priority 2016, dated 2020).
# pIC50: −log10 of the molar value. “Also recorded” adds a separate entry of the source.
# How the values were obtained:
# Mtb H37Rv [1] = experiment: modified 96-well microplate Alamar blue assay (MABA), growth inhibition; type: cell-based, Mycobacterium tuberculosis; conditions: for growth inhibition activity in words: SAR discussion; for MIC: Mycobacterium tuberculosis, H37RV, Mtb H37Rv
# [2] = tested on: autoluminescent Mtb strain derived from Mtb H37Rv in THP-1 cells; experiment: microbe, parasite or virus in culture; type: cell-based; conditions: Mycobacterium tuberculosis; for pIC50: THP-1, 72 h, read-out: IC50 intracellular activity
# [3] = tested on: mycolic acid biosynthesis in Mtb; experiment: mycolic acid biosynthesis, [1,2-14C]acetate labeling, TLC and autoradiography; type: cell-based, Mycobacterium tuberculosis; conditions: 0.4-4 μg/ml, 16 h
# Mtb H37Rv [4] = experiment: minimum bactericidal concentration (MBC), kill kinetics over 21 days; type: cell-based; conditions: Mycobacterium tuberculosis, 504 h, aerobic, 7H9-Tw-OADC medium, 2-log kill in 21 days
# Mycobacterium abscessus = experiment: MIC against Mycobacterium abscessus, OD590; conditions: Mycobacteroides abscessus
# Procedure: The activity of compounds against Mycobacterium abscessus and Mycobacterium avium was assessed under aerobic conditions by determining the minimum inhibitory concentration of compound (MIC). The strains were M. abscessus subsp. bollettii 103 and M. avium subsp. avium 2285 (S). The assay was based on measurement of growth in liquid medium of each strain where the readout is optical density (OD) or metabolic activity (using Alamar blue).
# The MIC of compound against Mycobacterium abscessus and Mycobacterium avium was determined by measuring bacterial growth in the presence of test compounds. Compounds were prepared as 20-point two-fold serial dilutions in DMSO and diluted into 7H9-Tw-OADC medium in 96-well plates with a final DMSO concentration of 2%. The highest concentration of compound was 200 μM where compounds were soluble in DMSO at 10 mM. Each plate included assay controls for background (medium/DMSO only, no bacterial cells), zero growth (100 μM rifampicin) and maximum growth (DMSO only), as well as a rifampicin dose response curve.
# For Mycobacterium abscessus, plates were inoculated with M. abscessus and incubated for 3 days at 37° C.; growth was measured by OD590. […] Rifampicin was included once in each run. […] If no point reached 75% inhibition, the MIC was reported as >maximum concentration tested.
# [5] = tested on: THP-1 human monoocytic cell line; experiment: cytotoxicity towards PMA-differentiated THP-1 cells (CellTiter-Glo); type: cell-based
# Mtb H37Rv mc26206 = experiment: microbe, parasite or virus in culture; type: cell-based; conditions: Mycobacterium tuberculosis
# Mtb H37Rv [6] = experiment: microbe, parasite or virus in culture; type: cell-based; conditions: Mycobacterium tuberculosis
smiles,measurement,setting,value
"CCOC(=O)c1c(NC(=O)c2c(F)c(F)c(F)c(F)c2F)sc2c1CCN(C(=O)OC(C)(C)C)C2 [4{2,3,0}, 6-(Tert-butyl) 3-ethyl 2-(perfluorobenzamido)-4,7-dihydrothieno[2,3-c]pyridine-3,6(5H)-dicarboxylate]",growth inhibition activity in words,Mtb H37Rv [1],inactive
"CCOC(=O)c1c(NC(=O)c2c(F)c(F)c(F)c(F)c2F)sc2c1CCN(CC)C2 [4{3,3,0}, ethyl 6-ethyl-2-(perfluorobenzamido)-4,5,6,7-tetrahydrothieno[2,3-c]pyridine-3-carboxylate]",pIC50,[2],5.25
same,IC90,"[2]; THP-1, read-out: IC90 intracellular activity",9.75 µM
same,"effect on synthesis of mycolic acids (TMM, TDM, mAG-attached mycolates)",[3],strongly inhibits the biosynthesis of all forms of mycolic acid; also recorded: strongly inhibits the synthesis of all forms of mycolic acids
same,MBC,Mtb H37Rv [4],< 5 µM
same,MIC,Mycobacterium abscessus,1.11 µg/mL
same,pIC50,"[5]; Homo sapiens, 72 h, THP-1 macrophage-like cells, 3 days, read-out: IC50 (concentration causing a 50% loss in viability)",5.21
same,macrophage viability IC50 relative to the MIC,[5]; times higher than the MIC,27 times
same,"increase in potency compared to compound 4{4,3,0}",Mtb H37Rv [1],40 fold
same,MIC,Mtb H37Rv mc26206,0.4 µg/mL
same,MIC,Mtb H37Rv [6],0.23 µM
"CCOC(=O)c1c(NC(=O)c2cc(C(F)(F)F)cc(C(F)(F)F)c2)sc2c1CCN(CC)C2 [4{3,4,0}, Ethyl 2-(3,5-bis(trifluoromethyl)benzamido)-6-ethyl-4,5,6,7-tetrahydrothieno[2,3-c]pyridine-3-carboxylate]",MIC,Mtb H37Rv [1]; read-out: MIC,> 100 µg/mL
"CCN1CCc2c(sc(NC(=O)c3cc(C(F)(F)F)cc(C(F)(F)F)c3)c2C(=O)NCc2ccc(C)cc2)C1 [4{3,4,3}, 2-(3,5-Bis(trifluoromethyl)benzamido)-6-ethyl-N-(4-methylbenzyl)-4,5,6,7-tetrahydrothieno[2,3-c]pyridine-3-carboxamide]",MIC,Mtb H37Rv [1],≥ 200 µg/mL
"CCOC(=O)c1c(NC(=O)c2ccccc2)sc2c1CCCC2 [4{4,2,0}]",growth inhibition activity in words,Mtb H37Rv [1],no activity
"CCOC(=O)c1cc(-c2ccccc2)sc1NC(=O)c1c(F)c(F)c(F)c(F)c1F [4{5,3,0}, Ethyl 2-(perfluorobenzamido)-5-phenylthiophene-3-carboxylate]",MIC,Mtb H37Rv [1]; read-out: MIC,> 100 µg/mL
"NNC(=O)c1ccncc1 [INH, Isoniazid, reference compound]",pIC50,[2],6.62
